Test [1] can be described thus: Thermostability, rigid co-polymer (e), ventilated oven 210° C. Particulars: 0.3 part. As to the method:
(§1) The study of the static thermostability of vinyl co-polymers was carried out according to the GARDNER method described above and, also in a more detailed manner in British Patent No. 1,489,685.
(e) Rigid co-polymer vinyl chloride-vinylidene chloride
(§2) The following compound was prepared:
The sheets were heated in a ventilated oven at 210° C. and the following results were obtained: […]

The nature of test [2]: Comparison with stabilizer G1, 0.3 part, 185° C.
A short description of test [3]: Photostabilizing power, tetrahydrofuran solution of plates exposed to the sun, French Pharmacopeia. As to the method:
The photostabilizing power of the compounds of the invention was studied by exposing to the sun polyvinyl chloride plates which had been stabilized either by a dihydropyridine of the invention or by 2-phenyl-indole, or again by 2-(3'-methoxy-4'-hydroxy)-indole. This last product is an extremely valuable thermostabilizer for thermoplastic resins and is described in British Pat. No. 1,489,685.
The resin given hereunder was prepared by mixing on cylinders at 160° C.:
The plates of stabilized polyvinyl chloride, together with a plate which had not been stabilized, were stood in the sun under the same conditions and at the same time. Their colour was measured after 6 hours and 12 hours of exposure.
The coloration of the plates was determined according to two methods:
On a solution of these plates in tetrahydrofuran, the coloration of th solution being measured according to the French Pharmacopeia (IXth edition, II-338).

A short description of test [4]: Comparison with 2-phenyl-indole, vinyl chloride-vinyl acetate co-polymer, 185° C. Particulars: 0.3 part. As for the experimental part: (c) Comparison with 2-phenyl-indole
A comparative test was made using the following compound:
The sheets were heated in a ventilated oven at 185° C. and the following results were obtained: […]

Test [5] is described as follows: Thermostability, rigid co-polymer (d), ventilated oven 210° C. Particulars: 0.3 part. As to the method:
as §1
(d) Rigid co-polymer vinyl chloride-vinylidene chloride
as §2
The sheets were heated in a ventilated oven at 210° C.

For `C=CCOC(=O)C1=C(C)NC(C)=C(C(=O)OCC=C)C1` [Compound 1, 2,6-Dimethyl-3,5-dicarboallyloxy-1,4-dihydropyridine], the “coloration, GARDNER scale” value in test [1] (0 min) was 1; in test [1] (3 min) it was 1; in test [1] (6 min) it was 2; in test [1] (9 min) it was 4; in test [1] (12 min), 10.

As for `CC1=C(C(=O)OCc2ccccc2)CC(C(=O)OCc2ccccc2)=C(C)N1` [Compound 21, 2,6-Dimethyl-3,5-dicarbobenzyloxy-1,4-dihydropyridine], the “coloration, GARDNER scale” value is 1 in test [2] (0 min); 1 in test [2] (2 min); 2 in test [2] (4 min); 4 in test [2] (6 min); 7 in test [2] (8 min); 12 in test [2] (10 min). Further, the “coloration, GARDNER scale” value in test [2] (12 min) is recorded as 16; in test [2] (14 min), 18; in test [4] (0 min), 1; in test [4] (2 min), 1; in test [4] (4 min) it was 2; in test [4] (6 min), 3. Also, the “coloration, GARDNER scale” value in test [4] (8 min) turned out to be 7; in test [4] (10 min) it was 10; in test [4] (12 min), 12; in test [4] (14 min) it was 16; in test [5] (0 min), 1.5; in test [5] (3 min), 2. Also, the “coloration, GARDNER scale” value in test [5] (6 min) was found to be 2; in test [5] (9 min) it was 3; in test [5] (12 min) it was 7; in test [5] (15 min), 15. In addition, the “Coloration of the plates FRENCH PHARMACOPEIA” value in test [3] (exposure to sun 0) is “JV6”; in test [3] (exposure to sun 6h), “JV6”; in test [3] (exposure to sun 12h) it was “JV5”.

Values taken from patent US4317768A, “Dihydropyridine derivatives as stabilizers for vinyl chloride polymers” (priority 1977, dated 1982).
